Values after ≈ are worked out from the molar mass of the structure shown.
Key:
[1] = tested on: European catfish virus (ECV); assay: Endpoint virus titration (TCID50/mL) in EPC cells, ECV; type: cell-based; conditions: 800 µM acyclovir, 10 days, vs control
Protocol: (§1) Epithelioma Papulosum Cyprini (EPC; ATCC CRL-2872) cells were grown and handled as described in detail previously. IcHV-2 originates from Italy, while the ECV strain (14612/2012) was isolated from the brown bullhead in Hungary. The Frog Virus 3 strain Granoff (FV3, ATCC VR-567) was originally isolated from a leopard frog (Lithobates pipiens) in the USA in 1965 [38] and was propagated on various fish and reptilian cell lines before it was added to our collection by courtesy of Rachel Marschang (University of Hohenheim, Stuttgart, Germany). All three viruses were cultivated in the EPC cell line at 25 °C. The tissue culture infectious dose (TCID50/mL) was calculated by the Reed and Muench method.
(§2) The EPC cells were seeded into 96-well plates (2 × 10^4 cells/well) and incubated overnight at 25 °C. […] The titers were read after 10 days of incubation at 25 °C.

[2] = tested on: Frog virus 3 (FV3); assay: qPCR of viral DNA load in infected EPC cells, FV3; type: cell-based; conditions: 800 µM acyclovir, MOI 0.05, 48 h, normalized to beta-actin
Protocol: (§3) The EPC cells were also seeded in 24-well plates (2 × 10^5 cells/well) and incubated overnight at 25 °C. […] The plates were incubated for 48 h at 25 °C. Afterwards, the plates were frozen at −20 °C, followed by nucleic acid extraction and qPCR analysis.
(§4) Extraction of viral DNA was carried out with the Viral Nucleic Acid Extraction Kit II (Geneaid, New Taipei City, China) according to the manufacturer’s instructions. The extracted DNA was stored at −20 °C. Quantitative PCRs (qPCRs) were used to determine the relative amount of viral DNA in the treated and control groups. The qPCRs were performed in a Bio-Rad® Real-Time PCR System instrument (Bio-Rad, Hercules, CA, USA) using the SensiFast^TM SYBR Hi-ROX Kit (Bioline, London, UK). The PCR mixture contained 10 µL of 2xSensifast SYBR mix, 0.8 µL of forward and reverse primers, 6.4 µL pf distilled water, and 2 µL of the target DNA. The final 20 µL mixture was used in a program that included an initial denaturing step at 95 °C for 3 min, followed by 40 cycles of 95 °C for 5 s and either 65 °C or 72 °C for 30 s. All the qPCRs were performed in duplicate, and the beta-actin gene of the EPC cells was used as an internal standard. The resulting qPCR data were analyzed by the Bio-Rad CFX Maestro Software. During the experiment, ranavirus major capsid protein forward and reverse primers were used for both the ECV and FV3 viruses. […]

[3] = tested on: Ictalurid herpesvirus 2 (IcHV-2); assay: qPCR of viral DNA load in infected EPC cells, IcHV-2; type: cell-based; conditions: 800 µM acyclovir, MOI 0.05, 48 h, normalized to beta-actin
Protocol: as §3, §4

[4] = tested on: Ictalurid herpesvirus 2 (IcHV-2); assay: Endpoint virus titration (TCID50/mL) in EPC cells, IcHV-2; type: cell-based; conditions: 800 µM acyclovir, 10 days, vs control
Protocol: as §1, §2

[5] = tested on: CyHV-3; conditions: 222.02 and 444.04 µM acyclovir; cited from earlier work
[6] = tested on: European catfish virus (ECV); assay: qPCR of viral DNA load in infected EPC cells, ECV; type: cell-based; conditions: 800 µM acyclovir, MOI 0.05, 48 h, normalized to beta-actin
Protocol: as §3, §4

[7] = tested on: Frog virus 3 (FV3); assay: Endpoint virus titration (TCID50/mL) in EPC cells, FV3; type: cell-based; conditions: 800 µM acyclovir, 10 days, vs control
Protocol: as §1, §2

[8] = in vitro; type: cell-based; conditions: fathead minnow (Pimephales promelas)
Protocol: In brief, 96-well plates were seeded with the EPC cells at a density of 2 × 10^4 cells/well and incubated for 24 h at 25 °C. The growth medium was then replaced with acyclovir-containing medium at concentrations of 3200 µM, 1600 µM, 800 µM, 400 µM, 200 µM, 100 µM, and 50 µM.

[9] = tested on: IcHV-1; conditions: 10 µM acyclovir, BB cells; cited from earlier work
[10] = Solubility of acyclovir in the cell culture medium; type: physicochemical; conditions: fully supplemented EMEM cell culture medium, crystallization observed at 3200 µM
Protocol: The following concentrations were prepared for the experiments: 3200 µM, 1600 µM, 800 µM, 400 µM, 200 µM, 100 µM, and 50 µM.

With Nc1nc2c(ncn2COCCO)c(=O)[nH]1 [acyclovir] the “Decrease of viral load (TCID50/mL titer)” value [1] was 2500 fold, the “Reduction of viral DNA load (qPCR)” value [2] was 10^3 fold and the “Reduction of viral DNA load (qPCR)” value [3] was 10^4 fold. The “Decrease of viral load (TCID50/mL titer)” value [4] was 30 fold, the “Reduction (CyHV-3)” value [5] was 98% and the “Reduction of viral DNA load (qPCR)” value [6] was 10^5 fold. The “Decrease of viral load (TCID50/mL titer)” value [7] was 11 fold, the viability at 3 days, 50 µM [8] was 113 ± 1.92% and the viability at 3 days, 100 µM [8] was 105 ± 1.48%. For the same molecule, the viability at 3 days, 200 µM [8] was 111 ± 2.27%, the viability at 3 days, 400 µM [8] was 110 ± 3.45% and the viability at 3 days, 800 µM [8] was 103 ± 1.41%. For the same molecule, the viability at 3 days, 1600 µM [8] was 94.3 ± 1.47%, the viability at 3 days, 3200 µM [8] was 103 ± 1.58% and the “Reduction of plaque number” value [9] was 99%. It also gave a solubility [10] of 3.2 mM (≈ 721 µg/mL).
